Experimental data from paper PMC12655551, “Design, Synthesis, and Evaluation of Pyrrole-Based Selective MAO-B Inhibitors with Additional AChE Inhibitory and Neuroprotective Properties Identified via Virtual Screening” (Pharmaceuticals, 2025).
Read-outs that look alike come from different tables or passages of the source.

What was measured:
[1] = target: T1, recombinant human MAO-A (hMAOA) (Homo sapiens, UniProt P21397); assay: MAO-A inhibition, fluorometric Amplex UltraRed assay; assay type: biochemical; conditions: for inhibition at 1 µM: read-out: Inhibition Activity 1 µM MAO-A
T1 sequence (P21397 1-527): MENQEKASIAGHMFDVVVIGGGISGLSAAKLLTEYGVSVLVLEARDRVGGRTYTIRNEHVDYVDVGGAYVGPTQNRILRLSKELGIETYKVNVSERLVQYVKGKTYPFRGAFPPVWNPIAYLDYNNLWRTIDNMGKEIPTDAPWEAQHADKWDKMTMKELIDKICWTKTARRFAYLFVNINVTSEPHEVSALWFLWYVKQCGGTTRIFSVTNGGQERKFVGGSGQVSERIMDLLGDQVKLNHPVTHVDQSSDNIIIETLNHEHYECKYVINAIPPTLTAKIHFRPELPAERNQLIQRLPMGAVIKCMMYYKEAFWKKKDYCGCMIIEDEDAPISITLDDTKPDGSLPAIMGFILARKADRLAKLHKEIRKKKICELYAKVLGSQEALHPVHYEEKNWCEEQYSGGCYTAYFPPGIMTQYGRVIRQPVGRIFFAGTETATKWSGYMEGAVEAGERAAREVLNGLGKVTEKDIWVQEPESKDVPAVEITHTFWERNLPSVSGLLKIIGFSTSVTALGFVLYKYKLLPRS
Description: Monoamine oxidase (MAO) activity for both recombinant human MAO-A (hMAOA) and MAO-B (hMAOB) was assessed using a fluorometric assay based on the Amplex® UltraRed reagent. This method, originally reported by Bautista-Aguilera et al. and later adapted with minor changes by Kasabova-Angelova et al., detects hydrogen peroxide or peroxidase activity present in enzymes or biological samples. In this assay, Amplex® Red reacts in a 1:1 molar ratio with hydrogen peroxide in the presence of peroxidase, producing the red-fluorescent compound resorufin. Due to resorufin’s strong extinction coefficient (58,000 ± 5000 cm^−1·M^−1), measurements could be accurately taken using either fluorometric or spectrophotometric methods. […] The control conditions included the use of purified hMAOA or hMAOB in reaction buffer, enzyme solutions with hydrogen peroxide, and buffer alone. All the test compounds were initially prepared at a 1 µM final concentration. These compounds were combined with either hMAOA or hMAOB and loaded into a 96-well plate (with eight replicates per test compound), followed by incubation for 30 min at 37 °C in the dark. Subsequently, a 50 µL detection mix was added to each well. This mix contained Amplex® Red, horseradish peroxidase (HRP), and tyramine substrate, all prepared in a reaction buffer. As this enzymatic reaction proceeded continuously, the fluorescence signal was recorded every 30 min (at 0, 30, 60, 90, 120, and 150 min) to track enzymatic kinetics.

[2] = tested on: isolated rat brain synaptosomes; assay: 6-OHDA-induced neurotoxicity in isolated rat brain synaptosomes; assay type: cell-based; conditions: compound 50 µM with 6-OHDA 150 μM
Description: (§1) Two types of buffers were used for the isolation of the rat brain synaptosomes and mitochondria. Buffer A was 5 mM HEPES and 0.32 M Sucrose; Buffer B was 290 mM NaCl, 0.95 mM MgCl2 × 2H2O, 10 mM KCl, 2.4 mM CaCl2 × 2H2O, 2.1 mM NaH2PO4, 44 mM HEPES, 13 mM D-Glucose. For the gradient centrifugation, Percoll reagent was used. A stock solution of 90% Percoll was used to prepare 16%, 10% and 7.5% solutions. All the solutions were used as described below. Immediately after harvesting, synaptosomes, microsomes, and mitochondria were incubated with the exam compounds for 1 h. For assessing the possible neurotoxicity of the most MAOB active compounds, the sub-cellular fractions were incubated with 100 µM of them, and for evaluating their possible neuroprotective and antioxidant activities in different models of neurotoxicity, the sub-cellular fractions were incubated with 50µM of them. The protein measurement of all the sub-cellular fractions was made by the method of Lowry et al., 1951 [57].
(§2) The synaptosomes were prepared from rat brains by multiple sub-cellular fractionation using a Percoll gradient.
This in vitro model resembles the neurodegenerative processes occurring in PD. Dopamine metabolism and oxidation led to the formation of reactive oxygen species (ROS) and reactive quinones. These processes were catalyzed by the MAOB enzyme. They induced dopamine neurotoxicity and neurodegeneration. The synaptosomes were incubated with 150 μM 6-OHDA for 1 h.
(§3) After the incubation, the synaptosomes were centrifuged three times at 15,000× g for 1 min. MTT-test was performed to determine synaptosomal vitality by the method described by Mungarro-Menchaca et al..
(§4) The level of GSH was determined by measuring the non-protein SH-groups after precipitation of the proteins with trichloroacetic acid (TCA). The presence of thiols in the supernatant was determined using Elmman’s reagent. The resulting yellow color was measured spectrophotometrically (λ = 412 nm).

[3] = tested on: isolated rat brain mitochondria; assay: t-BuOOH-induced oxidative stress in isolated rat brain mitochondria; assay type: cell-based; conditions: compound 50 µM with t-BuOOH 75 μM
Description: as §1
The mitochondria were prepared by multiple differential fractionation using a Percoll gradient.
The mitochondria were incubated with 75 μM t-BuOOH [57].
After incubation of the mitochondria, 0.3 mL 0.2% TBA and 0.25 mL sulfuric acid (0.05 M) were added to stop the reaction. The tubes were maintained at 100 °C for 30 min. In the next stage, centrifugation of the tubes was carried out at 3500× g for 10 min. Assessment of the total quantity of MDA formed in each sample was measured in the supernatant at 532 nm.
After incubation of mitochondria, 0.04% DTNB was mixed with the mitochondrial suspensions in 0.1 M phosphate buffer (pH 7.4). The absorbance of the yellow product was measured at 412 nm.

[4] = tested on: isolated rat brain synaptosomes; assay: Neurotoxicity of compounds alone on isolated rat brain synaptosomes (MTT viability, GSH); assay type: cell-based; conditions: compound alone, 100 μM, vs non-treated synaptosomes
Description: as §1, §2, §3, §4

For Cc1ccc(C)n1C(Cc1cnc[nH]1)C(=O)O (centres unmarked) [EM-DC-19, 2-(2,5-dimethyl-1H-pyrrol-1-yl)-3-(2H-imidazol-4-yl)propanoic acid], the IC50 [1] was over 100 µM, the inhibition at 1 µM [1] was 99 ± 6.1% and the “preservation of GSH level compared to toxic 6-OHDA” value [2] was 20%. For the same compound, the “decrease of MDA production compared to the toxic agent” value [3] was 52%, the “preservation of GSH level compared to toxic t-BuOOH” value [3] was 30% and the “decrease of GSH level compared to the control” value [4] was 30%. The “decrease of synaptosomal viability compared to the control” value [4] was 25%.
For Cc1ccc(C)n1-c1ccc(CC(=O)O)cc1 [EM-DC-27, [4-(2,5-dimethyl-1H-pyrrol-1-yl)phenyl]acetic acid], the inhibition at 1 µM ([1]; 1 µM compound) was 99 ± 7.1%, the IC50 ([1]; means ± SD of three experiments, read-out: MAO-A IC50) was over 100 µM and the “preservation of GSH level compared to toxic 6-OHDA” value [2] was 20%. The “decrease of MDA production compared to the toxic agent” value [3] was 48%, the “preservation of GSH level compared to toxic t-BuOOH” value [3] was 30% and the “decrease of GSH level compared to the control” value [4] was 30%. For the same compound, the “decrease of synaptosomal viability compared to the control” value [4] was 25%.
